Experimental data: US20200397001A1, “CONTROL OF PESTS OF SOYBEAN PLANTS WITH MESOIONIC COMPOUNDS” (BASF SE, priority 2018, published 2020)

Tests used:
Format in all cases: in vivo
Halyomorpha halys = experiment: Brown marmorated stink bug spray test on soybean seeds in cups; details: 300 ppm, adults on soybean seeds, 5 days after treatment
Method: Halyomorpha halys (Brown Marmorated Stink Bug)
For evaluating control of Halyomorpha halys the active compound is dissolved at the desired concentration in a mixture of 1:1 (vol:vol) distilled water:acetone with 0.005% (v/v) of Tween 20 added as surfactant. Soybean seeds are placed in a small petri dish inside a plastic cup 10 adults (5 females and 5 males) are introduced into each cup. Using an airbrush sprayer, 1 mL solution was sprayed directly inside the cups with bean pods. After drying, a water source (wet cotton in a small petri dish) is placed in each cup, and the cups closed with ventilated cover. All cups held under constant temperature of 20° C., 16L:8D photoperiod. Live insects are counted at 5 days after treatment.

Euschistus heros = experiment: Brown stink bug test on sprayed soybean seedlings of Intacta and BMX-Potencia; details: 100 ppm, 6 days after application; for efficacy on soybean with Bacillus thuringiensis toxin trait (INTACTA) versus soybean without the trait (BMX-POTENCIA): sprayed seedlings; for mortality (corrected according to Abbott): sprayed soybean seedlings of Intacta and BMX-Potencia, adults
Method: Brown Stink Bug (Euschistus heros)
The active compound is dissolved at the desired concentration in a mixture of 1:1 (vol:vol) distilled water:acetone. Soybean seedlings of Intacta and BMX-Potencia with one pair of true leaves were sprayed 10 with 2 ml solution using an airbrush. After dry, the plants in small pots were placed inside a transparent plastic cage and infested with 10 adults adult stage individuals. Treated cups were kept at about 25° C. Percent mortality was recorded after 6 days after application. […] Entomal., 18 (1925) 265-267.

Nezara viridula = experiment: Green soldier stink bug soil drench test on lima bean plants; details: 250 g ai/ha, 2nd instar nymphs infested 3 days after treatment, read 4 days after infestation
Method: Green Soldier Stink Bug (Nezara viridula)
Lima Bean (Phaseolus lunatus, ‘Henderson Bush,’ Lot #—VR06650) plants were transplanted at the two true-leaf stage into 25.8 cm2 pots filled with sifted (No. 10 sieve). Pots were held in the greenhouse and watered daily until treatment. Three days after transplant, the compounds were dissolved in acetone and then diluted with water for a final concentration of 50% acetone. Treatments were applied as a drench in 1 ml solution per plant. Plants were held in an environmental chamber (25±2° C., 24 L) and watered as needed for the duration of the test.
Three days after treatment, plants were infested with five 2nd instar nymphs. Plants were 15 covered with organza fabric bags to prevent escape. Four days after infestation, the number of live nymphs on each plant was recorded, and means were calculated for each treatment. The percent control was calculated as the percent mortality relative to the solvent blank.

Compound	mortality in comparison with untreated controls (Halyomorpha halys)	efficacy on soybean with Bacillus thuringiensis toxin trait (INTACTA) versus soybean without the trait (BMX-POTENCIA) (Euschistus heros)	mortality (corrected according to Abbott) (Euschistus heros) [%]	mortality in comparison with untreated controls (percent control relative to the solvent blank) (Nezara viridula)
Cc1cccc(-c2c([O-])[n+]3ccccc3n(CCC#N)c2=O)c1 [Compound C-6]	at least 75%			
N#CCCn1c(=O)c(-c2cc(C3CC3)cc(C(F)(F)F)c2)c([O-])[n+]2ccccc12 [Compound C-8]		higher efficacy	68	at least 75%
N#CCCn1c(=O)c(-c2ccc(F)cc2)c([O-])[n+]2ccccc12 [Compound C-9]		higher efficacy	70	
